The subject of data set [1] is microbial control in water. The data set can be described thus: Microbial control in water at slightly alkaline pH. Type of data set: cell-based. The source says: In some embodiments, microbial control in water at slightly alkaline pH was compared between peracetate oxidant, […] bleach, peracetic acid and […] dioxide. Alkaline pH is encountered in a variety of applications where microbial control and sanitization is needed, including pulp and paper processing, cooling towers, water treatment and chill tanks in poultry processing. […].

The nature of data set [2]: Thermal activation in distilled water at pH 8.5 and 50° C. In kind it is physicochemical. The note with it: pH 8.5, 50° C.
Data set [3] can be described thus: Side by side bleaching of Kraft pulp, hand sheet Kappa number, pH and ORP. As to conditions: for Kappa No.: unbleached 30.
For data set [4] the following is noted: gas; cited from earlier work.
The conditions of data set [5]: 20° C.; cited from earlier work.
Where [6] appears, read: 1.13 g/L PAA equiv., initial pH 8.2, 30 min.

The text below walks through data of patent US11795615B2 (priority 2015, dated 2023).

Turning to `CC(=O)OO` [PAA, peracetic acid], the “performance as antimicrobial disinfectant” value in data set [1] was “lowest performance”. In data set [2], the “time of stable peracetic acid and hydrogen peroxide concentrations” value is listed as “about 90 minutes”. For the same compound, in data set [2] (peracetate value within 40 minutes), the ORP entry is “around 280 mV vs SHE”. The “Kappa No.” value in data set [3] (4.0 g/L PAA equiv., initial pH 7.0, 30 min) amounted to 31; in data set [3] (4.0 g/L PAA equiv., initial pH 8.9, 30 min), 29. The “Kappa unit reduction (bleaching efficiency)” value in data set [3] (hand sheet tests, initial Kappa number 30) was “only up to one Kappa unit reduction”.
chlorine dioxide [ClO2]: in data set [1], the “performance as antimicrobial disinfectant” value is “performed well”. Further, the vapor pressure entry in data set [4] was “greater than 1 atm”. Moreover, in data set [5], the “solubility limit in water” value was 0.8 % wt/vol. Besides, in data set [3] (setting [6]), the “Final ORP” value came to 896 mV vs SHE and the “Kappa No.” value was 22.
